Data as given in patent publication US11325920B2, “Antibacterial compounds, compositions thereof, and methods using same” (The Rockefeller University, priority 2018, dated 2022).
In brackets after ≈: the same amount, converted by molar mass. Like-named read-outs stand apart in the source and are kept apart here.

Legend:
[1] = system: Staphylococcus aureus ATCC12600; experiment: MIC assay, wild type S. aureus ATCC 12600; type: cell-based
M. tuberculosis H37Rv = experiment: Antibiotic assay against Mycobacterium tuberculosis (IC90); type: cell-based; details: for MIC: read-out: IC90 (footnote a; column head MIC)
[2] = system: Staphylococcus aureus USA100; experiment: MIC assay, S. aureus USA100
Protocol: (§1) Minimum Inhibitory Concentration (MIC) and Minimal Bactericidal Concentration (MBC) Assays. […] Specifically, overnight cultures in an appropriate broth (e.g., Luria Bertani, Mueller-Hinton II) were diluted to 5×10^5 cfu/mL and used to fill wells of a 96-well plate. […] The plates were incubated on a shaker (200 rpm) at 35-37° C. for 18-20 hours, and then the optical density was measured at 595 nm on a microplate reader.

[3] = system: Staphylococcus aureus USA200; experiment: MIC assay, S. aureus USA200
Protocol: as §1

[4] = system: Staphylococcus aureus USA800; experiment: MIC assay, S. aureus USA800
Protocol: as §1

[5] = system: Staphylococcus aureus ATCC BAA-42; experiment: MIC assay, S. aureus ATCC BAA-42
Protocol: as §1

[6] = system: Staphylococcus aureus ATCC BAA-1721; experiment: MIC assay, S. aureus ATCC BAA-1721
Protocol: as §1

[7] = system: Salmonella enterica IR715; experiment: MIC assay, Salmonella enterica IR715
Protocol: (§2) Minimum Inhibitory Concentration (MIC) and Minimal Bactericidal Concentration (MBC) Assays. […] Specifically, overnight cultures in an appropriate broth (e.g., Luria Bertani, Mueller-Hinton II) were diluted to 5×10^5 cfu/mL and used to fill wells of a 96-well plate. […] The plates were incubated on a shaker (200 rpm) at 35-37° C. for 18-20 hours, and then the optical density was measured at 595 nm on a microplate reader. Samples of each well without visible growth were diluted and spread on LB agar petri dishes. The petri dishes were incubated overnight at 37° C., and the colonies were counted.

[8] = system: Staphylococcus aureus NCTC 8325 pT181; experiment: MIC assay, S. aureus NCTC 8325 pT181
Protocol: as §1

[9] = system: Enterococcus faecium Com15; experiment: MIC assay, Enterococcus faecium Com15
Protocol: as §1

[10] = system: Proteus mirabilis ATCC29906; experiment: MIC assay, Proteus mirabilis ATCC29906
Protocol: as §2

[11] = system: Pseudomonas aeruginosa PAO1; experiment: MIC assay, Pseudomonas aeruginosa PAO1
Protocol: as §1

[12] = system: Listeria monocytogenes ATCC15313; experiment: MIC assay, Listeria monocytogenes ATCC15313
Protocol: as §1

[13] = system: Staphylococcus epidermidis RP62A; experiment: MIC assay, Staphylococcus epidermidis RP62A
Protocol: as §1

[14] = system: Acinetobacter baumannii ATCC17978; experiment: MIC assay, Acinetobacter baumannii ATCC17978
Protocol: as §2

[15] = system: S. aureus ATCC 12600 D471Y mutant strain
[16] = system: S. aureus ATCC 12600 D471Y mutant strain; experiment: microbe, parasite or virus in culture; details: Staphylococcus aureus, ATCC12600
[17] = system: rifamycin resistant S. aureus strains carrying RNAP mutations; experiment: Activity against rifamycin resistant S. aureus strains carrying RNAP mutations; details: FIG. 6D
[18] = target: T1, S447L mutant DNA-dependent RNA polymerase from Mycobacterium smegmatis (Mycolicibacterium smegmatis, UniProt P60281, S447L); type: biochemical; details: S447L M. smegmatis RNAP mutant
T1 construct: made in house

[19] = Mycobacterium tuberculosis H37Rv, Table 5
[20] = Mycobacterium tuberculosis, H37RV
[21] = Staphylococcus aureus, ATCCBAA42
[22] = Staphylococcus aureus, ATCCBAA1721
[23] = Staphylococcus aureus, NCTC8325

CC(=O)O[C@@H]1[C@@H](C)[C@@H](O)[C@@H](C)[C@@H](O)[C@@H]([C@@H](C)OC(=O)C(C)(C)CC(=O)O)/C=C/C=C(\C)C(=O)NC2=CC(=O)c3c(c(O)c(C)c4c3C(=O)[C@](C)(O/C=C/[C@H](O[C@@H]3C[C@@H]5OCO[C@@H]5[C@H](C)O3)[C@H]1C)O4)C2=O [Kang A, kanglemycin A, reference compound]
MIC [1]: 0.62 µg/mL (≈ 0.631 µM)
IC90 (M. tuberculosis H37Rv; M. tuberculosis H37Rv, read-out: IC90): 12.5 µM
IC90 (footnote a; column head MIC) (M. tuberculosis H37Rv; [19]): 13 µg/mL (≈ 13.2 µM)
MIC [2]: 1.0 µg/mL (≈ 1.02 µM)
MIC [3]: 2.0 µg/mL (≈ 2.04 µM)
MIC [4]: 0.5 µg/mL (≈ 0.509 µM)
MIC ([5]; Staphylococcus aureus ATCC BAA-42): 1.0 µg/mL (≈ 1.02 µM)
MIC ([6]; Staphylococcus aureus ATCC BAA-1721): 2.0 µg/mL (≈ 2.04 µM)
MIC [7]: >64 µg/mL
MIC ([8]; Staphylococcus aureus NCTC 8325 pT181): 0.25 µg/mL (≈ 0.255 µM)
MIC ([9]; Enterococcus faecium Com15): 64 µg/mL (≈ 65.2 µM)
MIC [10]: >64 µg/mL
MIC [11]: 64 µg/mL (≈ 65.2 µM)
MIC [12]: 2.0 µg/mL (≈ 2.04 µM)
MIC [13]: 0.25 µg/mL (≈ 0.255 µM)
MIC [14]: >64 µg/mL

CC(=O)OC1C(C)C(OC2CC3OCOC3C(C)O2)/C=C/OC2(C)CC(O)c3c(c(C)c(O)c4c3C(=O)C=C(NC(=O)/C(C)=C\C=C\C(C(C)OC(=O)C(C)(C)CC(=O)O)C(O)C(C)C(O)C1C)C4=O)O2 (stereo not drawn) [Kang V1, kanglemycin V1]
MIC [1]: 0.069 µg/mL (≈ 0.0691 µM)
MIC (M. tuberculosis H37Rv; [19]): 3.1 µg/mL (≈ 3.11 µM)
IC90 (M. tuberculosis H37Rv; [20]): 3.12 µM
fold lower MIC than rifampicin [15]: ~80 fold
MIC [2]: 0.13 µg/mL (≈ 0.13 µM)
MIC [3]: 0.25 µg/mL (≈ 0.25 µM)
MIC [4]: 0.063 µg/mL (≈ 0.0631 µM)
MIC [5, 21]: 0.13 µg/mL (≈ 0.13 µM)
MIC [6, 22]: 0.063 µg/mL (≈ 0.0631 µM)
MIC [7]: > 64 µg/mL
MIC [8, 23]: 0.063 µg/mL (≈ 0.0631 µM)
MIC ([9]; Enterococcus faecium, COM15): 32 µg/mL (≈ 32.1 µM)
MIC [16]: 0.069 µg/mL (≈ 0.0691 µM)
MIC [10]: > 64 µg/mL
MIC [11]: 64 µg/mL (≈ 64.1 µM)
MIC [12]: 1 µg/mL (≈ 1 µM)
MIC [13]: 0.031 µg/mL (≈ 0.0311 µM)
MIC [14]: > 64 µg/mL
activity against rifamycin resistant S. aureus strains [17]: active

CO[C@H]1/C=C/O[C@@]2(C)Oc3c(C)c(O)c4c(O)c(c(/C=N/N5CCN(C)CC5)c(O)c4c3C2=O)NC(=O)/C(C)=C\C=C\[C@H](C)[C@H](O)[C@@H](C)[C@@H](O)[C@@H](C)[C@H](OC(C)=O)[C@@H]1C [Rifampicin, rifampicin, reference compound]
MIC ([1]; read-out: MIC): 0.023 µg/mL (≈ 0.0279 µM)
MIC (M. tuberculosis H37Rv; [19]): 0.2 µg/mL (≈ 0.243 µM)
MIC [2]: 0.0078 µg/mL (≈ 0.00948 µM)
MIC [3]: 0.0078 µg/mL (≈ 0.00948 µM)
MIC [4]: 0.016 µg/mL (≈ 0.0194 µM)
MIC [5, 21]: 0.016 µg/mL (≈ 0.0194 µM)
MIC [6, 22]: 0.0078 µg/mL (≈ 0.00948 µM)
MIC [8, 23]: 0.031 µg/mL (≈ 0.0377 µM)
MIC ([9]; Enterococcus faecium, COM15): 4 µg/mL (≈ 4.86 µM)
MIC [16]: 5.6 µg/mL (≈ 6.8 µM)
MIC [11]: 32 µg/mL (≈ 38.9 µM)
MIC [12]: 0.031 µg/mL (≈ 0.0377 µM)
MIC [13]: 0.016 µg/mL (≈ 0.0194 µM)

CC(=O)OC1C(C)C(OC2CC3OCOC3C(C)O2)/C=C/OC2(C)OC3=C(C)C(=O)c4c(O)c(cc5c4C3=C2OCO5)NC(=O)/C(C)=C\C=C\C(C(C)OC(=O)C(C)(C)CC(=O)O)C(O)C(C)C(O)C1C (stereo not drawn) [Kang V2, kanglemycin V2]
MIC [1]: 0.62 µg/mL (≈ 0.622 µM)
MIC (M. tuberculosis H37Rv; [19]): 1.6 µg/mL (≈ 1.61 µM)
IC90 (M. tuberculosis H37Rv; [20]): 1.56 µM
in vitro activity against RNAP (run-off transcription) [18]: highest potency
MIC [2]: 1 µg/mL (≈ 1 µM)
MIC [3]: 2 µg/mL (≈ 2.01 µM)
MIC [4]: 1 µg/mL (≈ 1 µM)
MIC [5, 21]: 1 µg/mL (≈ 1 µM)
MIC [6, 22]: 0.25 µg/mL (≈ 0.251 µM)
MIC [7]: > 64 µg/mL
MIC [8, 23]: 0.25 µg/mL (≈ 0.251 µM)
MIC ([9]; Enterococcus faecium, COM15): 64 µg/mL (≈ 64.3 µM)
MIC [10]: > 64 µg/mL
MIC [11]: 64 µg/mL (≈ 64.3 µM)
MIC [12]: 1 µg/mL (≈ 1 µM)
MIC [13]: 0.25 µg/mL (≈ 0.251 µM)
MIC [14]: > 64 µg/mL
activity against rifamycin resistant S. aureus strains [17]: active
